Structures can show the parent of a compound that is named as a salt.
Assays:
AMPK = AMPK activation (AMPKα immunoassay kit, phospho-Thr172) in MCF7 cells; assay type: cell-based, human; parameters: AMPK Activation 50 uM (degree of phosphorylated AMPKα Thr172): unit not given here; conditions: 24 h; for AMPK Activation 50 uM (degree of phosphorylated AMPKα Thr172): 50 uM compound
Procedure: The MCF7 cells were put on a 6-well plate and incubated in a DMEM medium containing 10% fetal bovine serum in an incubator to which 5% CO2 was supplied to have a cell count of approximately 5×10^5. 50 μM of the derivatives synthesized in the examples were treated to the each culture medium, and the cells were incubated for 24 hours. Subsequently, the cells were lysed by a method presented in the operation manual of the AMPKα immunoassay kit, and 20 μg of cell lysates were yielded through protein assay.

HCT116 cells = experiment: Inhibition of cancer cell proliferation (MTT, GIC50); assay type: cell-based; conditions: Homo sapiens, HCT-116, 48 h incubation
Procedure: HCT116 cells derived from human colorectal cancer were used, and a cancer cell proliferation inhibition effect of a biguanide derivative was confirmed by measuring a concentration value (cell growth inhibition concentration, GIC50) at which cell growth was inhibited 50% using a 3-(4,5-dimethylthiazol-2-yl)-2,5-diphenyltetrazolium bromide (MTT) reagent.
First, the HCT116 cells were put on a 96-well plate and incubated for 24 hours to each have cell count of approximately 5000 in a DMEM medium containing 10% fetal bovine serum. Subsequently, to obtain the GIC50 value of each compound, 100 μM (or 200 μM), 25 μM, 6.25 μM, 1.56 μM or 0.39 μM of the compound was treated to each culture medium and then incubated for 48 hours. To confirm living cells after treatment with the compound, MTT was added to each culture medium and further incubated for 3 hours. Generated formazane crystal was dissolved using dimethyl sulfoxide (DMSO), and absorbance of the solution was measured at 560 nm. After the 48-hour incubation, a ratio of […] synthesized in the examples was indicated as cell viability (%) according to each administered concentration. A cell viability curve was plotted using the cell viability (%) and the calculated concentration value (GIC50) of the compound, at which 50% of the growth was inhibited, to confirm an effect on the inhibition of cancer cell proliferation.

[1] = 50 uM compound vs 0 (no compound)

SMILES	AMPK Activation Fold (AMPK; [1])	AMPK Activation 50 uM (degree of phosphorylated AMPKα Thr172) (AMPK)	IC50 (HCT116 cells) [µM]	melting point [°C]	AMPK Activation Fold (AMPK; 1 mM metformin vs 0 (no compound))	AMPK Activation (@ 1 mM) (degree of phosphorylated AMPKα Thr172) (AMPK; 1 mM metformin)
CCCC/N=C(/NC(=N)N)NC1CCCCCC1.Cl [Example 1, N4-butyl-N5-cycloheptyl biguanide hydrochloride]	4.0	21.1	> 200			
CCC/N=C(\NC)NC(=N)N.Cl [Example 2, N4-propyl-N5-methyl biguanide hydrochloride]	1.0	6.5	> 100	170 to 171		
CCCCCC/N=C(\NC)NC(=N)N.Cl [Example 3, N4-hexyl-N5-methyl biguanide hydrochloride]	5.2	35.5	> 100			
C=CC/N=C(\NC)NC(=N)N.Cl [Example 4, N4-allyl-N5-methyl biguanide hydrochloride]	0.8	5.3	> 100	156 to 157		
CN/C(=N\Cc1ccccc1)NC(=N)N.Cl [Example 5, N4-benzyl-N5-methyl biguanide hydrochloride]	1.6	10.8	> 100	113 to 115		
CN/C(=N\CCc1ccccc1)NC(=N)N.Cl [Example 6, N4-(phenetyl)-N5-methyl biguanide hydrochloride]	4.9	33.1	> 100	126 to 127		
CCCCCC/N=C(/NC(=N)N)NC(C)CC.Cl (stereo not drawn) [Example 7, N4-hexyl-N5-(butane-2-yl)biguanide hydrochloride]	5.8	39.5	> 100	175 to 176		
CCC(C)N/C(=N\CCc1ccccc1)NC(=N)N.Cl (stereo not drawn) [Example 8, N4-(phenetyl)-N5-(butyl-2-yl)biguanide hydrochloride]	2.7	18.4	> 100	181 to 183		
CCCC/N=C(\NCCCC)NC(=N)N.Cl [Example 9, N4,N5-dibutyl biguanide hydrochloride]	3.8	25.6	> 100	112 to 114		
CCCCCC/N=C(\NCCCC)NC(=N)N.Cl [Example 10, N4-hexyl-N5-butyl biguanide hydrochloride]	7.2	38.1	30.3			
CCCCN/C(=N\C(C)C)NC(=N)N.Cl [Example 11, N4-isopropyl-N5-butyl biguanide hydrochloride]	0.6	4.2	> 100	173 to 175		
CCCCN/C(=N\C(C)CC)NC(=N)N.Cl (stereo not drawn) [Example 12, N4-(butane-2-yl)-N5-butyl biguanide hydrochloride]	1.5	8.1	> 200	193 to 194		
C=CC/N=C(\NCCCC)NC(=N)N.Cl [Example 13, N4-allyl-N5-butyl biguanide hydrochloride]	3.9	20.5	> 200			
CCCCN/C(=N\Cc1ccco1)NC(=N)N.Cl [Example 15, N4-(furane-2-yl)methyl-N5-butyl biguanide hydrochloride]	3.7	19.4	> 200			
CCCCN/C(=N\Cc1ccccc1)NC(=N)N.Cl [Example 18, N4-benzyl-N5-butyl biguanide hydrochloride]	1.8	9.6	> 200			
CCCCN/C(=N\Cc1cccc(Cl)c1)NC(=N)N.Cl [Example 20, N4-(3-chloro)benzyl-N5-butyl biguanide hydrochloride]	1.5	7.2	54.1			
CCCCN/C(=N\Cc1ccc(Cl)cc1)NC(=N)N.Cl [Example 21, N4-(4-chloro)benzyl-N5-butyl biguanide hydrochloride]			13.5	113 to 115		
CCCCN/C(=N\Cc1ccc(OC)cc1)NC(=N)N.Cl [Example 22, N4-(4-methoxyl)benzyl-N5-butyl biguanide hydrochloride]	4.4	29.9	> 100			
CCCCN/C(=N\Cc1ccc(Cl)c(Cl)c1)NC(=N)N.Cl [Example 23, N4-(3,4-dichloro)benzyl-N5-butyl biguanide hydrochloride]	7.8	19.5	35.3			
CCCCN/C(=N\CCc1ccc(Cl)cc1)NC(=N)N.Cl [Example 25, N4-(4-chloro)phenethyl)-N5-butyl biguanide hydrochloride]			26.5			
CCCCN/C(=N\CCc1ccc(Cl)cc1)NC(=N)N.Cl [Example 25]	6.7	16.7		123 to 124		
C=CC/N=C(\NCc1ccccc1)NC(=N)N.Cl [Example 29, N4-allyl-N5-benzyl biguanide hydrochloride]	1.0	5.5	> 200			
Cl.N=C(N)N/C(=N/C1CCCCCC1)NCc1ccccc1 [Example 31, N4-cycloheptyl-N5-benzyl biguanide hydrochloride]	6.6	44.6	> 100			
CCCC/N=C(\NCCc1ccccc1)NC(=N)N.Cl [Example 33, N4-butyl-N5-(phenethyl)biguanide hydrochloride]			6.5	178 to 179		
Cl.N=C(N)N/C(=N/c1ccccc1)NCCc1ccccc1 [Example 35, N4-phenyl-N5-(phenethyl)biguanide hydrochloride]	1.3	9.0		232 to 233		
Cl.N=C(N)N/C(=N/c1ccc(Cl)cc1)NCCc1ccccc1 [Example 36, N4-(4-chloro)phenyl-N5-(phenethyl)biguanide hydrochloride]			9.3	115 to 116		
Cl.N=C(N)N/C(=N/Cc1ccco1)NCCc1ccccc1 [Example 38, N4-(furan-2-yl)methyl-N5-(phenethyl)biguanide hydrochloride]	3.2	22.0	> 100			
COc1ccc(C/N=C(/NC(=N)N)N(C)Cc2cccc3ccccc23)cc1.Cl [Example 46, N4-(4-methoxyl)benzyl-N5,N5-(1-naphthylmethyl)-(methyl) biguanide hydrochloride]	3.7	19.5	99.1			
CN(C)C(=N)N=C(N)N [Metformin HCl, reference compound]					3.2	21.5

— patent publication US9464042B2, “Biguanide derivative, preparation method thereof, and pharmaceutical composition containing same as an active ingredient” (IMMUNOMET THERAPEUTICS INC., priority 2010, dated 2016)
